pIC50: −log10 of the molar value. Structures can show the parent of a compound that is named as a salt.
Target: T1, rh beta tryptase (Homo sapiens, UniProt Q15661)
T1 construct: purchased Promega
Experiment: tryptase inhibition in vitro test (cleavage of N-p-tosyl-Gly-Pro-Lys-para-nitroaniline, p-nitroaniline measured at 405 nm)
Assay type: biochemical
Conditions: rh beta tryptase 0.91 U/ml, substrate 0.6 mM, Tris HCl buffer with calcium and heparin, pH 7.4, 37° C., 5 minutes incubation; read-out: Tryptase-inhibiting activity
Procedure: The compounds according to the invention are characterised by their tryptase-inhibiting activity. This ability to inhibit tryptase was investigated using the test described below.
The measurement is carried out in Tris HCl buffer (100 mM), which additionally contains calcium (5 mM) and heparin ([…]), at pH 7.4. The standard used is rh beta tryptase which may be obtained commercially from Promega, for example. The substrate used is N-p-tosyl-Gly-Pro-Lys-para-nitroaniline in a concentration of 0.6 mM. The substrate is digested with tryptase to form p-nitroaniline which can be measured at 405 nm. Usually, an incubation period of 5 minutes and an incubation temperature of 37° C. are chosen. The enzyme activity used is 0.91 U/ml. The measurements are carried out in an Autoanalyser (Cobas Bio) made by Hofmann LaRoche. The potential inhibitory substances are used in concentrations of 10 μM in the screening, the inhibition of the tryptase being given in percent. The IC50 is determined at over 70% inhibition (concentration at which 50% of the enzyme activity is inhibited). After 5 minutes' pre-incubation of the potential inhibitory substances, the substrate is added to start the reaction, the formation of p-nitroaniline being taken as a measurement of the enzyme activity after 5 minutes, after testing the linearity.

T1 sequence (Q15661 31-275): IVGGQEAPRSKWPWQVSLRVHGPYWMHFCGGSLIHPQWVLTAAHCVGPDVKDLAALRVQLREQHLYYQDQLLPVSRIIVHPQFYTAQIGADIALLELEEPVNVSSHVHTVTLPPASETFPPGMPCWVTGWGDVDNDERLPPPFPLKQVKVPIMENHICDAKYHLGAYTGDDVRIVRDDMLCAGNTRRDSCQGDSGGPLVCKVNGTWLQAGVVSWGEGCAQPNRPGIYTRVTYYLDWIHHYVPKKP

Row | Compound | pIC50
1 | CN(C(=O)CN1CCC(Nc2ccc(F)cc2Cl)CC1)c1ccc2c(c1)nc(CCc1ccc(C(=N)N)cc1)n2C [Example 33, N-{2-[2-(4-Amidinophenyl)-ethyl]-1-methyl-benzimidazol-5-yl}-N-methyl-2-[4-(2-chloro-4-fluorophenylamino)-piperid-1-yl]-acetamide, dihydrochloride] | 8.52 to 9.30
2 | Cn1c(CCc2ccc(C(=N)N)cc2)nc2cc(N(Cc3ccc(N)cc3)C(=O)CN3CCC(Nc4ccccc4)CC3)ccc21 [Example 44, N-{2-[2-(4-Amidinophenyl)-ethyl]-1-methyl-benzimidazol-5-yl}-N-[4-aminophenyl-methyl]-2-(4-phenylamino-piperid-1-yl)-acetamide, dihydrochloride] | 7.52 to 8.40
3 | Cc1ccc(NC2CCN(CC(=O)N(C)c3ccc4c(c3)nc(CCc3ccc(C(=N)N)cc3)n4C)CC2)c(Cl)c1 [Example 61, N-{2-[2-(4-Amidinophenyl)-ethyl]-1-methyl-benzimidazol-5-yl}-N-methyl-2-[4-(2-chloro-4-methylamino)-piperid-1-yl]-acetamide, dihydrochloride] | 8.52 to 9.30
4 | Cn1c(CCc2ccc(C(=N)N)cc2)nc2cc(N(Cc3cccc4ccccc34)C(=O)CN3CCC(Nc4cccnc4)CC3)ccc21 [Example 26, N-{2-[2-(4-Amidinophenyl)-ethyl]-1-methyl-benzimidazol-5-yl}-N-[naphth-1-ylmethyl]-2-[4-(3-pyridylamino)-piperid-1-yl]-acetamide, dihydrochloride] | 8.52 to 9.30
5 | Cn1c(CCc2ccc(C(=N)N)cc2)nc2cc(N(Cc3cccc4ccccc34)C(=O)NCc3ccccc3)ccc21 [Example 5, N-{2-[2-(4-Amidinophenyl)-ethyl]-1-methyl-benzimidazol-5-yl}-N-(naphth-1-ylmethyl)-N′-benzyl-urea, Hydrochloride] | 6.00 to 7.51
6 | Cn1c(CCc2ccc(C(=N)N)cc2)nc2cc(N(Cc3ccc(C(C)(C)C)cc3)C(=O)CN3CCC(Nc4ccccn4)CC3)ccc21 [Example 3, N-{2-[2-(4-Amidinophenyl)-ethyl]-1-methyl-benzimidazol-5-yl}-N-(4-tert-butylphenylmethyl)-2-[4-(2-pyridylamino)-piperid-1-yl]-acetamide, Dihydrochloride] | 7.52 to 8.40
7 | Cn1c(CCc2ccc(C(=N)N)cc2)nc2cc(N(Cc3cccc4ccccc34)C(=O)CN3CCC(Nc4ccccn4)CC3)ccc21 [Example 6, N-{2-[2-(4-Amidinophenyl)-ethyl]-1-methyl-benzimidazol-5-yl}-N-[naphth-1-ylmethyl]-2-[4-(2-pyridylamino-piperid-1-yl]-acetamide, dihydrochloride] | 8.52 to 9.30
8 | CN(C(=O)CN1CCC(Nc2ccccc2C(C)(C)C)CC1)c1ccc2c(c1)nc(CCc1ccc(C(=N)N)cc1)n2C [Example 64, dihydrochloride] | 7.52 to 8.40
9 | Cn1c(CCc2ccc(C(=N)N)cc2)nc2cc(N(Cc3cccc4ccccc34)C(=O)CN3CCC(Nc4ccc(OCc5ccccc5)cc4)CC3)ccc21 [Example 17, N-{2-[2-(4-Amidinophenyl)-ethyl]-1-methyl-benzimidazol-5-yl}-N-[naphth-1-ylmethyl]-2-[4-(4-benzyloxy-phenylamino)-piperid-1-yl]-acetamide, dihydrochloride] | 7.52 to 8.40
10 | COc1ccc(NC2CCN(CC(=O)N(Cc3cccc4ccccc34)c3ccc4c(c3)nc(CCc3ccc(C(=N)N)cc3)n4C)CC2)cc1 [Example 14, N-{2-[2-(4-Amidinophenyl)-ethyl]-1-methyl-benzimidazol-5-yl}-N-[naphth-1-ylmethyl]-2-[4-(4-methoxyphenylamino)-piperid-1-yl]-acetamide, dihydrochloride] | 7.52 to 8.40
11 | Cn1c(CCc2ccc(C(=N)N)cc2)nc2cc(N(Cc3cccc4ccccc34)C(=O)CN3CCC(Nc4ccc(O)cc4)CC3)ccc21 [Example 18, N-{2-[2-(4-Amidinophenyl)-ethyl]-1-methyl-benzimidazol-5-yl}-N-[naphth-1-ylmethyl]-2-[4-(4-hydroxyphenylamino)-piperid-1-yl]-acetamide, dihydrochloride] | 7.52 to 8.40
12 | CN(C(=O)CN1CCC(N(Cc2ccccc2)C2CCCN2)CC1)c1ccc2c(c1)nc(CCc1ccc(C(=N)N)cc1)n2C (centres unmarked) [Example 43, N-{2-[2-(4-Amidinophenyl)-ethyl]-1-methyl-benzimidazol-5-yl}-N-methyl-2-{4-[(N-benzyl)-2-pyrrolidylamino]-piperid-1-yl}-acetamide, dihydrochloride] | 7.52 to 8.40
13 | Cn1c(CCc2ccc(C(=N)N)cc2)nc2cc(N(Cc3ccncc3)C(=O)CN3CCC(Nc4ccccn4)CC3)ccc21 [Example 46, N-{2-[2-(4-Amidinophenyl)-ethyl]-1-methyl-benzimidazol-5-yl}-N-[4-pyridylmethyl]-2-[4-(2-pyridylamino)-piperid-1-yl]-acetamide, dihydrochloride] | 7.52 to 8.40
14 | CN(C(=O)CN1CCC(NCc2ccccn2)CC1)c1ccc2c(c1)nc(CCc1ccc(C(=N)N)cc1)n2C [Example 29, N-{2-[2-(4-Amidinophenyl)-ethyl]-1-methyl-benzimidazol-5-yl}-N-methyl-2-[4-(2-pyridylmethylamino)-piperid-1-yl]-acetamide, dihydrochloride] | 6.00 to 7.51
15 | CN(C(=O)CN1CCC(Nc2ccc(Cl)cc2Cl)CC1)c1ccc2c(c1)nc(CCc1ccc(C(=N)N)cc1)n2C [Example 32, N-{2-[2-(4-Amidinophenyl)-ethyl]-1-methyl-benzimidazol-5-yl}-N-methyl-2-[4-(2,4-dichlorophenylamino)-piperid-1-yl]-acetamide, dihydrochloride] | 8.52 to 9.30
16 | CN(C(=O)CN1CCC(Nc2ccc3c(c2)Cc2ccccc2-3)CC1)c1ccc2c(c1)nc(CCc1ccc(C(=N)N)cc1)n2C [Example 42, N-{2-[2-(4-Amidinophenyl)-ethyl]-1-methyl-benzimidazol-5-yl}-N-methyl-2-[4-(aminofluorene)-piperid-1-yl]-acetamide, dihydrochloride] | 7.52 to 8.40
17 | Cn1c(CCc2ccc(C(=N)N)cc2)nc2cc(N(Cc3ccccc3)C(=O)CN3CCC(Nc4ccccn4)CC3)ccc21 [Example 57, N-{2-[2-(4-Amidinophenyl)-ethyl]-1-methyl-benzimidazol-5-yl}-N-[benzyl]-2-[4-(2-pyridylamino)-piperid-1-yl]-acetamide, dihydrochloride] | 7.52 to 8.40
18 | CN(C(=O)CN1CCC(Nc2ccccc2C(F)(F)F)CC1)c1ccc2c(c1)nc(CCc1ccc(C(=N)N)cc1)n2C [Example 38, N-{2-[2-(4-Amidinophenyl)-ethyl]-1-methyl-benzimidazol-5-yl}-N-methyl-2-[4-(2-trifluoromethylphenylamino)-piperid-1-yl]-acetamide, dihydrochloride] | 7.52 to 8.40

More lines, now with the values ahead:

Row | pIC50 | Compound
19 | 8.52 to 9.30 | CN(C(=O)CN1CCC(Nc2ccc(Cl)cc2Br)CC1)c1ccc2c(c1)nc(CCc1ccc(C(=N)N)cc1)n2C [Example 65, N-{2-[2-(4-Amidinophenyl)-ethyl]-1-methyl-benzimidazol-5-yl}-N-methyl-2-[4-(2-bromo-4-chloroamino)-piperid-1-yl]-acetamide, dihydrochloride]
20 | 8.52 to 9.30 | Cc1ccc(NC2CCN(CC(=O)N(C)c3ccc4c(c3)nc(CCc3ccc(C(=N)N)cc3)n4C)CC2)c(Br)c1 [Example 66, N-{2-[2-(4-Amidinophenyl)-ethyl]-1-methyl-benzimidazol-5-yl}-N-methyl-2-[4-(2-bromo-4-methylamino)-piperid-1-yl]-acetamide, dihydrochloride]
21 | 6.00 to 7.51 | COc1cccc(NC(=O)N(Cc2cccc3ccccc23)c2ccc3c(c2)nc(CCc2ccc(C(=N)N)cc2)n3C)c1 [Example 73, N-{2-[2-(4-Amidinophenyl)-ethyl]-1-methyl-benzimidazol-5-yl}-N-[naphth-1-ylmethyl]-N′-(3-methoxy)-phenyl, hydrochloride]
22 | 7.52 to 8.40 | Cn1c(CCc2ccc(C(=N)N)cc2)nc2cc(N(Cc3cccc4ccccc34)C(=O)Nc3cccc4ccccc34)ccc21 [Example 75, N-{2-[2-(4-Amidinophenyl)-ethyl]-1-methyl-benzimidazol-5-yl}-N-[naphth-1-ylmethyl]-N′-(1-naphthyl)-urea, hydrochloride]
23 | 7.52 to 8.40 | CN(C(=O)CN1CCC(Nc2ccc(F)cc2Cl)CC1)c1ccc2c(c1)nc(CCc1ccc(CN)cc1)n2C [Example 84, Ditrifluoroacetate]
24 | 6.00 to 7.51 | Cn1c(CCc2ccc(C(=N)N)cc2)nc2cc(NC(=O)N3CCC(Nc4ccccn4)CC3)ccc21 [Example 82, N-{2-[2-(4-Amidinophenyl)-ethyl]-1-methyl-benzimidazol-5-yl}-N′-[4-(2-pyridyl)-amino]-piperid-1-ine urea, hydrochloride]
25 | 8.52 to 9.30 | CN(C(=O)CN1CCC(Nc2ccc(Cl)cc2)CC1)c1ccc2c(c1)nc(CCc1ccc(C(=N)N)cc1)n2C [Example 105, N-{2-[2-(4-Amidinophenyl)-ethyl]-1-methyl-benzimidazol-5-yl}-N-methyl-2-[4-(4-chlorophenylamino)-piperid-1-yl]-acetamide, dihydrochloride]
26 | 7.52 to 8.40 | CN(C(=O)CN1CCC(Nc2ccccc2)CC1)c1ccc2c(c1)nc(CCc1ccc(C(=N)N)cc1)n2C [Example 108, N-{2-[2-(4-Amidinophenyl)-ethyl]-1-methyl-benzimidazol-5-yl}-N-methyl-2-[4-(phenylamino)-piperid-1-yl]-acetamide, dihydrochloride]
